How the values were obtained:
[1] = system: Salmonella enterica serovar Anatum (ATCC #9270); experiment: Salmonella Assay (liquid sanitizer exposure, log reduction); assay type: cell-based
[2] = system: General Bacteria (bacterial bird rinse); experiment: General Bacteria Assay (Vivione RAPID-B Total Plate Count); assay type: cell-based

SMILES | Treated Sample Reduction ([1]; 0 ppm chlorine, 10 ppm copper, Solution pH 6.0, Control Sample Baseline 7.02 log, n = 3) [log] | antimicrobial effect (in words) ([1]; at lower ppm) | Average Live ([2]; 5 ppm copper, pH at inoculation 5.68, Baseline 1562) | Average Live ([2]; 50 ppm copper, pH at inoculation 4.71, Baseline 1562) | activity against bacteria (in words) ([2]; at 5 ppm and 50 ppm concentrations) | Average Live ([2]; pH at inoculation 2.43, Baseline 408)
O.O.O.O.O.O=S(=O)([O-])[O-].[Cu+2] [Copper, Copper (II) sulfate pentahydrate] | 3.83 | limited antimicrobial effect | 1633 | 1666 | negligible activity | –
O=C(O)CC(O)(CC(=O)O)C(=O)O [citric acid @ 0.25%, citric acid] | – | – | – | – | – | 75

From patent US20170280728A1, “ANTIMICROBIAL COMPOSITIONS AND METHODS OF THEIR USE” (CMS TECHNOLOGY, INC.., priority 2014, published 2017)
